Key:
[1] = test system: rat-derived retinal ganglion cells (RGC); test: Neurite outgrowth inducing effect in culture system of rat-derived retinal ganglion cells; type: cell-based; conditions: all-trans form content 3 μM, 48 h; FIG. 2 and 3; n=4, Tukey-Kramer
From the text: The progress of visual impairment in glaucoma is associated with retinal ganglion cell (RGC) death due to blood flow failure occurring near the optic nerve (Folia Pharmacol. Jpn. 128, 255-258 (2006)). Accordingly, a culture system of rat-derived retinal neurons (Current protocols in Neuroscience 3.22.1-3.22.10, October 2010), which is widely used as one of study tools for optic nerve diseases such as a glaucoma, was used to examine the neurite outgrowth inducing effect of GGA.
Four-day-old Wistar rats (Japan SLC, Inc.) were euthanized by cervical dislocation and the eyeballs were harvested. The harvested eyeballs were immersed in 70% ethanol for 10 seconds and transferred to a Hanks' balanced salt solution containing 100 U/mL penicillin and 100 μg/mL streptomycin. Under a stereoscopic microscope, the corneas, irises, crystalline lenses, and vitreous bodies were removed using scissors for surgery and forceps, and the retinal tissue was harvested. The harvested retinal tissue was transferred to a centrifugation tube containing 5 mL of a basal medium for neuronal cells (Neurobasal, Invitrogen) containing 100 U/mL penicillin, 100 μg/mL streptomycin, a neural cell culture supplement (B27™-Supplement, Invitrogen), 1 μM L-cysteine (Kyowa Hakko Bio) and 15 U/mL papain (Sigma Aldrich) and incubated at 37° C. for 30 minutes. […]

[2] = test system: rat models with glaucoma induced by NMDA; test: Protective effect for retinal ganglion cells against nerve damage by NMDA (thickness of inner plexiform layer); type: in vivo
From the text: In recent years the glutamate analogue NMDA (N-methyl-D-aspartate) has been widely reported to be one of causative agents of neurodegenerative diseases including Alzheimer's disease. In the ophthalmic field, NMDA is considered to be involved in optic nerve damage in glaucoma (Brain Research Bulletin, 81 (2010) 349-358). Accordingly, in this experiment rat models with glaucoma induced by NMDA were used to evaluate the neuroprotective effect of GGA.
To Sprague-Dawley (SD) rats, the all-trans form, the 5Z-mono-cis form and teprenone were separately pre-administered by oral administration (Test Example 1), intravitreal administration (Test Example 2) or ocular instillation administration (Test Example 3) and 5 μL of NMDA was administered into the vitreous body to induce nerve damage. For Test Example 2, a marketed therapeutic eye drop for glaucoma, AIPHAGAN (trade name), was intravitreally administered as a positive control once a day for five days. For each of Test Examples, a base not containing GGA or AIPHAGAN was administered as a control in the same manner as described above.
The dosage and regimen of Test Examples 1 to 3 are shown in Table 1 and the constitution of the base used in each tests are shown in Table 2.
Three days after administration of NMDA, the eyeballs were harvested, fixed with half Karnovsky's fixative for 24 hours, embedded in paraffin, thin sectioned and stained with hematoxylin-eosin (HE) to prepare histopathological sections. The histological sections were observed under an optical microscope and the thickness (μm) of the inner plexiform layer (IPL) of the retina was measured. From the thickness of the inner plexiform layer (IPL) of the retina, the neuroprotective effects of the test preparations were evaluated.

CC(=O)CC/C=C(\C)CC/C=C(\C)CC/C=C(\C)CCC=C(C)C [all-trans form, (5E,9E,13E)-6,10,14,18-tetramethyl-5,9,13,17-nonadecatetrae n-2-one]
neurite inducing effect (mean length of neurites of RGC) compared with GGA 6:4 and base [1]: significant neurite inducing effect | neuroprotective effect against nerve damage by NMDA compared with base (IPL thickness) ([2]; Test Example 1: oral 800 mg/kg, 2 days, once a day, NMDA 4 mM, FIG. 6, Dunnett): significant neuroprotective effects | neuroprotective effect against nerve damage by NMDA compared with base (IPL thickness) ([2]; Test Example 2: intravitreal 0.05% w/v, 5 days, once a day, NMDA 40 mM, FIG. 7, Tukey-Kramer): significant neuroprotective effects | neuroprotective effect compared with AIPHAGAN Ophthalmic Solution 0.1% ([2]; Test Example 2: intravitreal 0.05% w/v, 5 days, NMDA 40 mM, FIG. 7): significantly superior neuroprotective effect | neuroprotective effect against nerve damage by NMDA compared with base (IPL thickness) ([2]; Test Example 3: ocular instillation 1% w/v, 5 days, 5 times per day, NMDA 4 mM, FIG. 9, t-test): significant neuroprotective effect

Source: patent publication US9724312B2, “Agent for the prevention, improvement or treatment of retinal disease” (ROHTO PHARMACEUTICAL CO., LTD., priority 2012, dated 2017)
